Assay results reported in patent US20260258015A1, “CRYSTALLINE FORMS OF 2-(4-(4-(AMINOMETHYL)-1-OXO-1,2- DIHYDROPHTHALAZIN-6-YL)-1-METHYL-1H- PYRAZOL-5-YL)-4-CHLORO-6-CYCLOPROPOXY-3-FLUOROBENZONITRILE” (MIRATI THERAPEUTICS, INC., priority 2023, published 2026).

What was measured:
[1] = acids (counterions) used in the salt screen of Compound 1; cited from earlier work
[2] = Behaviour of the isolated solid after air drying at ambient condition (hygroscopicity); format: physicochemical; settings: solid from slurry of free base, sulfuric acid and THF; air dried at ambient condition
Protocol: Using the amorphous free base from Example 1, 64 salt screen experiments were conducted using 16 acids in four solvent systems, plus four blank experiments in each respective solvent system. Slurry methods as disclosed herein were used to provide salt polymorphs of Compound 1. […] After magnetically stirring for four days at room temperature, any precipitation was isolated by centrifugation. If there was no precipitation after four days at room temperature, the clear solutions were transferred to stir at 5° C. to induce crystallization for 24 hours. If still no solids were observed, the final clear solution was subjected to slow evaporation at room temperature for four days. Any isolated solid was air dried at ambient condition before analysis.
[…]. As such, DSC/TGA data were not collected.

| SMILES | pKa [1] | state of the solid after air drying (hygroscopicity) [2] |
| --- | --- | --- |
| O=C(O)CC(O)C(=O)O (centres unmarked) [Malic acid] | 3.16 |  |
| Cn1ncc(-c2ccc3c(=O)[nH]nc(CN)c3c2)c1-c1c(F)c(Cl)cc(OC2CC2)c1C#N.O=S(=O)(O)O [sulfate salt Form A, 2-(4-(4-(aminomethyl)-1-oxo-1,2-dihydrophthalazin-6-yl)-1-methyl-1H-pyrazol-5-yl)-4-chloro-6-cyclopropoxy-3-fluorobenzonitrile sulfate] |  | remained a wet paste, likely due to hygroscopicity |
